Measured values taken from patent US7666842B2, “Elastin peptide analogs and uses thereof” (Connective Tissue Imagineering, LLC, priority 1998, dated 2010).
Ends that are not written are not given here.

Columns and labels:
RFL-6 cells [1] = experiment: Tritiated thymidine incorporation in RFL-6 cells; conditions: synthetic peptides, 24 hour incubation with RFL-6 cells
Experimental: Synthetic peptides were tested for their ability to stimulate incorporation of tritiated thymidine with a 24 hour incubation with RFL-6 cells.

rat skin = experiment: H&E histology of treated rat skin (Example 6); format: in vivo; conditions: for Outer (keratin) layer and vascularity of the inner layer: treated skin sections; for Thickness of the dermal layer of skin: vs untreated controls (both shaven and unshaven)
Experimental: Rat skin was treated with 7-hydroxy DHEA and 7-hydroxy isoandrosterone. Skin cross sections were stained with hematoxylin and eosin (H&E) and examined histologically. […] The DHEA and derivatives induction of dermal thickening was reversible. A subset of experimental animals within each treatment group were left untreated for 30 days. Upon examination, treated skin sections were indistinguishable from the untreated. Concomitant toxicological studies found no significant toxicity when the compounds were used at 0.5% concentration in a suitable carrier applied twice daily (12 hour intervals) for 30 days.

[2] = system: skins of neonatal male Sprague-Dawley rats; experiment: Collagen content of neonatal rat skin (hydroxyproline); format: in vivo; conditions: 0.5% in carrier twice daily, 30 days; five animals per group
Experimental: (§1) DHEA and the derivative compounds of DHEA (the 7 hydroxy derivative and 7 hydroxy-isoandrosterone) modified the elastin and collagen contents of neonatal rat skin when applied twice daily over a 30 day period at a concentration of 0.5% in a suitable carrier.
(§2) Collagen and elastin contents were measured on dry, defatted, hair-free skin samples. Collagen contents were assessed through hydroxyproline evaluations in hydrolyzed, 0.1N hot sodium hydroxide extracts. Elastin contents were measured by HPLC evaluation of the contents of thermolysin-produced peptides in digests of the hot sodium hydroxide residue. Controls were both shaven and unshaven, the shaven receiving only the carrier twice daily.
(§3) Elastin contents were increased by all the compounds (28% for DHEA, 30% for the 7 hydroxy derivative and the 7 hydroxy-isoandrosterone). In these studies, statistical analysis of variance was significant at an alpha level of 0.01. Similar to the histological observations, these chemistries were reversible. Collagen and elastin contents returned to near normal levels after cessation of treatment for 30 days.

[3] = In-vitro oxygen radical assay (luminol chemiluminescence, hydrogen peroxide); format: biochemical; conditions: diluted luminol pre-incubated with compound; 100 μg/ml for DHEA
Experimental: The ability of a compound to scavenge free radicals may implicate it as an anti-oxidizing agent. To test whether DHEA or it derivatives had the ability to capture free radicals, an in-vitro oxygen radical assay was used. The assay was run in quadruplicate to perfect the concentrations of controls as well as test the diluents (phosphate buffered saline (PBS) and DMSO) in which the DHEA and its derivatives were dissolved. The positive controls used were homocysteine and ascorbic acid (Vitamin C).

[4] = system: skins of neonatal male Sprague-Dawley rats; experiment: Elastin content of neonatal rat skin (HPLC of thermolysin-produced peptides); format: in vivo; conditions: 0.5% in carrier twice daily, 30 days; five animals per group
Experimental: as §1, §2, §3

RFL-6 cells [5] = experiment: BrdUTP incorporation assay (mRNA, green fluorescence) in RFL-6 cells; format: cell-based; conditions: sub-fractions of Fraction #3 (HPLC peaks at 215 nm); Blank (Background) 30
Experimental: A study was performed to determine whether different peptides had different activities in promoting skin health. Elastin protein was partially digested with thermolysin and the resulting peptides (i.e., SEQ ID 1-SEQ ID 41) were applied to an HPLC column. Five fractions containing clusters of peptides were collected from the column in the 5-50 minute range. The fractions were tested for activity using a bromodeoxyuridine Triphosphate (BrdUTP) incorporation assay in RFL-6 cells. The assay measures production of mRNA involved in protein synthesis.
Fraction #3 was sub-fractionated into 10 fractions corresponding to ten major peaks identified on the HPLC (at 215 nm). Table VI below illustrates the green fluorescence intensity as a measure of increased mRNA in RFL-6 cells in response to sub-fractionated portions of Fraction #3.

human fibroblasts = experiment: Proliferation of human fibroblasts in culture (cell count); format: cell-based; conditions: 72 hours of contact, control 190,667 ± 6,766
Experimental: Cultures of human fibroblasts (from a person) were seeded on twenty-four site plates at the rate of 50,000 cells per site in a standard culture medium (DMEM, gentamycine, amphotericine B, penicillin, L-glutamine, 10% SVF). The tests were carried out on four series of three sites. After twenty-four hours, the fibroblasts adhered to the support and three series were treated with 7α-hydroxy-DHEA at concentrations of 10^−6 M, 5×10^−6 M and 10^−7 M. The fourth series only contained the vector (ethanol). The media were renewed daily, and at ninety-six hours (seventy-two hours of test contact with the 7α-hydroxy-DHEA), the fibroblasts were counted on a Malassez cell in the presence of blue trypan.

human keratinocytes [6] = experiment: Anti-radical effect on UVA-irradiated human keratinocytes (lipoid peroxides, chemiluminescence); format: cell-based; conditions: 10^−6 M
Source text: Keratinocytes from a healthy donor were cultivated to the subconfluent stage in a specific medium (KGM) for the proliferation of keratinocytes. The suspensions obtained were split up, in triplicate, into four series, of which three were irradiated for thirty minutes with a lamp emitting UVA so as to speed up the production of free radicals. Among the three irradiated series, one contained Vitamins C and E (0.7%) and was used as a protection reference; one contained 7α-hydroxy-DHEA at 10^−6 M and the last served as a control.
The free radicals produced generated lipoid peroxides which are measured by chemiluminescence (Belghmi et al. J Biolum. Chemilum. 2: 113-119, 1982). The effectiveness of the 7α-hydroxy-DHEA was calculated on the basis of non-irradiated controls and the protection reference.

human keratinocytes [7] = experiment: Viability of human keratinocytes (MTT); format: cell-based; conditions: 10^−4 M to 10^−8 M
Experimental: Human keratinocytes were obtained from surgical items and were cultivated in a monolayer until preconfluence. The 7α-hydroxy-DHEA was administered to these cultures at various concentrations in ethanolic solution (10%), each concentration being tested eight times. Controls were carried out with ethanol alone (10%). After twenty-four hours, the viability of the keratinocytes was measured by testing with MTT (3-(4,5-dimethylthiazol-2-yl)-2,5 diphenyl tetrazolium bromide) where the mitochondrial dehydrogenase succinate converts the MTT into blue crystals of formazan soluble in DMSO (Mosmann, J. Immunol. Methods 65: 55-63, 1983). The cellular viability is calculated according to the formula: % viability=DO540 product×100/DO540 control.
A value greater than 100 indicates a product that encourages cellular viability.

skin of treated rats = experiment: Fluorescent micrographs of skin cross-sections stained with anti-fibronectin antibodies (Example 3); format: in vivo, rat; conditions: FIG. 2C DHEA topical, FIG. 2D peptide composition
Source text: FIGS. 2A-D are fluorescent micrographs of fixed skin cross-sections taken from rats treated as described in Example 3, and stained with fluorescein-conjugated anti-fibronectin antibodies. FIG. 2A is a representative sample from the unshaven control tissue; FIG. 2B is a representative sample from the shaven control sample; FIG. 2C is a representative sample of tissue which received DHEA topical treatment; and FIG. 2D is a representative sample of tissue which received treatment of a composition containing peptides, as described in Example 2. In each of the panels, the dermal layer of the skin is indicated by a bracket.
The capillary venules are shown in this figure as brightly stained oval bodies that lie beneath the dermal layer. The increase in the concentration of endothelial cells in the subdermal region indicates an increase in capillary density and therefore illustrates the potential for the peptides and formulations of the present invention to be used for the formation of blood vessels or capillary venules (neovascularization or angiogenesis).

[8] = system: skin of Sprague-Dawley male rats; experiment: Elastin content of rat skin after topical treatment (Example 2); format: in vivo; conditions: topical DHEA, 5% concentration, similar time period; S CONTR 1.408, US CONTR 2.291
Experimental: Topical treatment of Sprague-Dawley male rats with a composition including peptides (i.e., SEQ IDs 1-41) at a concentration of about 1.3% (wt/wt) of the formulation over a one month period was performed. The rats were treated topically with a 1.3% concentration (wt/wt) of the preparation of the hydrophilic elastin peptide for a period of 30 days. […] Three animals each were used to generate the data for S CONTR, US CONT, and DHEA and eleven animals were used for HEP. Three skin samples from the treated areas of each animal were taken for study, and the three results from each animal were averaged. […] The elastin content of the skin was determined by a precise assay for rat elastin developed by Sandberg, et al. (Connective Tissue Research 25:139-48, 1990) the assay portion of which is hereby incorporated herein by reference thereto. […]
An alpha level less than 0.001 for the data as determined by analysis of variance is significant because there is less than one chance in a thousand that the findings occur by chance.

Compound: Leucine-Glycine-Alanine-Glycine-Glycine-Alanine-Glycine [SEQ ID 19]
- Tritiated thymidine incorporation, % CPM above the control (RFL-6 cells [1]): ~18 % CPM above the control

Compound: C[C@]12CC[C@H](O)C[C@@H]1CC(O)[C@@H]1[C@@H]2CC[C@]2(C)C(=O)CC[C@@H]12 (some centres unmarked) [7-hydroxy isoandrosterone]
- Outer (keratin) layer and vascularity of the inner layer (rat skin): no change in the outer (keratin) layer nor increase of vascularity of the inner layer
- Thickness of the dermal layer of skin (rat skin): thickened to nearly twice that of the untreated controls
- Collagen increased by [2]: 24%
- Reduction of luminol light emission [3]: 15%
- Elastin contents increased by [4]: 30%

Compound: Valine-Glycine-Proline-Alanine [SEQ ID 14]
- % Change of Green Fluorescence Intensity (RFL-6 cells [5]): 39%

Compound: Valine-Glycine-Valine-Hydroxy-proline-Glycine [SEQ ID 23]
- % Change of Green Fluorescence Intensity (RFL-6 cells [5]): 57%

Compound: GAVVPQ--NH2 (GAVVPQ-NH2; listed as Homo sapiens) [SEQ ID 48]
- Tritiated thymidine incorporation, % CPM above the control (RFL-6 cells [1]): ~25 % CPM above the control

Compound: C[C@]12CC[C@H](O)CC1=C[C@H](O)[C@@H]1[C@@H]2CC[C@]2(C)C(=O)CC[C@@H]12 [7-hydroxy DHEA]
- Outer (keratin) layer and vascularity of the inner layer (rat skin): no change in the outer (keratin) layer nor increase of vascularity of the inner layer
- Thickness of the dermal layer of skin (rat skin): thickened to nearly twice that of the untreated controls
- Collagen increased by [2]: 24%
- Reduction of luminol light emission [3]: did not cause any reduction
- Elastin contents increased by [4]: 30%

Compound: Alanine-Alanine-Alanine-Glutamine-Alanine (AAAQA; listed as Homo sapiens) [SEQ ID 22]
- % Change of Green Fluorescence Intensity (RFL-6 cells [5]): 20%

Compound: C[C@]12CC[C@H](O)CC1=C[C@@H](O)[C@@H]1[C@@H]2CC[C@]2(C)C(=O)CC[C@@H]12 [7α-hydroxy-DHEA, 3β,7α-dihydroxy-5-androstene-17-one]
- Number of Fibroblasts (human fibroblasts; 5 × 10^−6 M): 258,667 ± 3,351
- Number of Fibroblasts (human fibroblasts; 10^−6 M): 268,000 ± 27,154
- Number of Fibroblasts (human fibroblasts; 10^−7 M): 230,667 ± 8,511
- Chemiluminescence (human keratinocytes [6]; UVA irradiated 30 minutes, non irradiated 2,529 ± 153, irradiated controls 427,750 ± 137,322): 44,164 ± 13,303
- Effectiveness (human keratinocytes [6]; UVA irradiated, calculated on non-irradiated controls and protection reference): 90%
- Cytotoxicity on human keratinocytes (human keratinocytes [7]): no cytotoxicity was observed

Compound: Valine-Valine-Proline-Glutamine [SEQ ID 17]
- Tritiated thymidine incorporation, % CPM above the control (RFL-6 cells [1]): ~28 % CPM above the control
- % Change of Green Fluorescence Intensity (RFL-6 cells [5]): 85%

Compound: C[C@]12CC[C@H](O)CC1=CC[C@@H]1[C@@H]2CC[C@]2(C)C(=O)CC[C@@H]12 [DHEA, 3β-hydroxy-5-androstene-17-one, reference compound]
- Dermal layer of control skin (FIGS. 2A and B) compared to treated skin (FIGS. 2C and D) (skin of treated rats): thin compared to the thickness of the dermal layers in FIGS. 2C and D
- Collagen decrease [2]: 16%
- Reduction of luminol light emission [3]: 20%
- Elastin content of the skin (mean) [8]: 1.753 μg Elastin per mg Skin Fat Fre
- Elastin contents increased by [4]: 28%

Compound: Valine-Valine-Proline-Glutamine-Amide [SEQ ID 42]
- Tritiated thymidine incorporation, % CPM above the control (RFL-6 cells [1]): ~1 % CPM above the control

Compound: Acetyl-GAVVPQ--NH2 (Ac-GAVVPQ-NH2; listed as Homo sapiens) [SEQ ID 44]
- Tritiated thymidine incorporation, % CPM above the control (RFL-6 cells [1]): ~5 % CPM above the control

Compound: Acetyl-VVPQ (Ac-VVPQ; listed as Homo sapiens) [SEQ ID 43]
- Tritiated thymidine incorporation, % CPM above the control (RFL-6 cells [1]): ~1 % CPM above the control

Compound: Valine-Tyrosine-Proline-Glycine-Glycine [SEQ ID 24]
- % Change of Green Fluorescence Intensity (RFL-6 cells [5]): 38%
